# Test results as given in patent publication US11548897B2, “Crystalline forms of a triazolopyrimidine compound” (NOVARTIS AG, priority 2016, dated 2023).
# Assays:
# [1] = tested on: H3K27 methylation in G401 cell; experiment: ELISA (H3K27 methylation) assay; format: cell-based; conditions: Homo sapiens, G-401; ELISA Qualified, G401 cells, 48 h; read-out: (c) IC50
# Description: ELISA (H3K27 Methylation) Assay
# Representative compounds of the present invention were serially and separately diluted 3-fold in DMSO to obtain a total of eight or twelve concentrations. Then the compounds were added to G401 cell cultured in 384-well plate at 1:500 dilution to obtain the highest concentration of 20 μM. The cells were further cultured for 48 h before ELISA procedure.
# Histone extraction: Cells, in 384-well plate, were washed with PBS (10×PBS buffer (80 g NaCl (Sigma, S3014), 2 g KCl (Sigma, 60128), 14.4 g Na2HPO4 (Sigma, S5136), 2.4 g KH2PO4 (Sigma, P9791) to 1 L water, pH to 7.4) and lysed with the addition of lysis buffer (0.4N HCl; 45 μL per well). The plate was gently agitated at 4° C. for 30 min. The cell lysate was neutralized with neutralization buffer (0.5 M sodium phosphate dibasic, pH 12.5, 1 mM DTT; 36 μL per well). The plate was agitated to ensure the lysates were well mixed prior to the ELISA protocol.
# ELISA protocol: Cell lysates were transferred to the wells of a 384-well plate and the final volume was adjusted to 50 μL per well with PBS. The plate was sealed, centrifuged at 2,000 rpm for 2 min and incubated at 4° C. for about 16 h. […] The signal was read using a PerkinElmer Envision Reader. The H3K27 methylation readouts were normalized using H3 signal and then percentage inhibition was calculated against the samples treated with DMSO. […]
# [2] = tested on: B cell lymphoma cell KARPAS422; experiment: Analysis of cell proliferation; format: cell-based; conditions: Homo sapiens, KARPAS-422, 336 h; KARPAS422, after 14 days of treatment; read-out: antiproliferative activities (IC50 values)
# Description: Analysis of Cell Proliferation
# B cell lymphoma cell KARPAS422 was cultured using standard cell culture conditions in RPMI-1640 (Invitrogen, cat #11875) supplemented with 15% FBS (Invitrogen, cat #10099-141) in humidified incubator at 37° C., 5% CO2. To assess the effect of PRC2 inhibition on cell proliferation, exponentially growing cells were seeded at a density of 1×10^5 cells/mL in 12-well plate (Corning, cat #CLS3513). After cell seeding, a compound of the present invention was added to the cell media (in concentrations ranging from 0 to 100 μM, 3× dilution series). Viable cell numbers were determined every 3-4 days for up to 14 days using Vi-CELL (Beckman Coulter). On days of cell counting, fresh growth media and compound were replenished and cells split back to a density of 1×10^5 cells/mL. Total cell number is expressed as split-adjusted viable cells per mL. The dose response curves and IC50 values were generated using Prism.
# [3] = Solubility in selected solvents (Table 2); format: physicochemical; conditions: thermodynamic from solid; for solubility at 2 h: 50° C.; for solubility: rt
# Description: To 10 mg of compound X in a sample vial at 50° C., selected solvent was added dropwise. The addition of solvent was stopped when a clear solution was reached or when the amount of solvent reached 1 mL. The resulting mixture was stirred continuously at 50° C. for 2 h, then cooled to rt, and stirred overnight. The solubilities at 50° C. and rt were determined by the homogeneity of the resulting mixture.
# [4] = Aqueous solubility (pH 7.4, simulated gastric fluid); format: physicochemical
# [5] = Rodent pharmacokinetic studies, exposure versus dose; format: in vivo; conditions: higher doses
# [6] = Stability of solid form to humidity and temperature; format: physicochemical
# Description: Dynamic vapor sorption was performed on a Surface Measurement Systems DVS Advantage instrument. Approximately 10 mg of material was loaded into a sample pan. The samples were exposed to sorption/desorption cycles in 10% relative humidity (RH) steps over the range of 50%-90%-0%-90%-50% RH at 25° C. and 50° C. A target equilibrium condition of mass change less than 0.002% over 5 min was set, with minimum and maximum equilibrium periods of 10 and 360 min, respectively. The carrier gas was nitrogen with a flow rate of 100 mL/min. The system is calibrated with saturated salt solutions. The weight percentage change (wt %) of the sample at each stage was measured and plotted versus the target partial pressure.
# [7] = aqueous with cosolvent or surfactant or cyclodextrin, Acetone/H2O (1/1)
# [8] = aqueous with cosolvent or surfactant or cyclodextrin, EtOH/H2O (1/1)
# [9] = organic solvent or mixture, ACN
# [10] = organic solvent or mixture, Acetone
# [11] = organic solvent or mixture, EtOAc
# [12] = organic solvent or mixture, EtOH
# [13] = organic solvent or mixture, Heptane
# [14] = organic solvent or mixture, IPA
# [15] = organic solvent or mixture, MTBE
# [16] = organic solvent or mixture, MeOH
# [17] = organic solvent or mixture, THF
SMILES,"solubility at 2 h [3, 7]","solubility [3, 7]","solubility at 2 h [3, 8]","solubility [3, 8]","solubility at 2 h [3, 9]","solubility [3, 9]","solubility at 2 h [3, 10]","solubility [3, 10]","solubility at 2 h [3, 11]","solubility [3, 11]","solubility at 2 h [3, 12]","solubility [3, 12]","solubility at 2 h [3, 13]","solubility [3, 13]","solubility at 2 h [3, 14]","solubility [3, 14]","solubility at 2 h [3, 15]","solubility [3, 15]","solubility at 2 h [3, 16]","solubility [3, 16]",further results
"Cc1ncccc1-c1cnc(NCc2c(F)ccc3c2CCO3)n2cnnc12 [Compound A, N-((5-Fluoro-2,3-dihydrobenzofuran-4-yl)methyl)-8-(2-methylpyridin-3-yl)-[1,2,4]triazolo[4,3-c]pyrimidin-5-amine]",< 10000 µg/mL,< 10000 µg/mL,< 10000 µg/mL,< 10000 µg/mL,< 10000 µg/mL,< 10000 µg/mL,< 10000 µg/mL,< 10000 µg/mL,< 10000 µg/mL,< 10000 µg/mL,< 10000 µg/mL,< 10000 µg/mL,< 10000 µg/mL,< 10000 µg/mL,< 10000 µg/mL,< 10000 µg/mL,< 10000 µg/mL,< 10000 µg/mL,< 10000 µg/mL,< 10000 µg/mL,"IC50 [1]: 2.6 nM; IC50 [2]: 3 nM; solubility at 2 h [3, 17]: < 10000 µg/mL; solubility [3, 17]: < 10000 µg/mL; solubility at 2 h ([3]; Water): < 10000 µg/mL; solubility ([3]; Water): < 10000 µg/mL; aqueous solubility ([4]; physiologically relevant pH level of 7.4): low; aqueous solubility ([4]; simulated gastric fluid (SGF)): low; exposure relative to dose [5]: under-proportional"
"Cc1ncccc1-c1cnc(NCc2c(F)ccc3c2CCO3)n2cnnc12.Cl [Compound X, N-((5-Fluoro-2,3-dihydrobenzofuran-4-yl)methyl)-8-(2-methylpyridin-3-yl)-[1,2,4]triazolo[4,3-c]pyrimidin-5-amine hydrochloride]",> 50000 µg/mL,< 50000 µg/mL,> 50000 µg/mL,< 50000 µg/mL,< 10000 µg/mL,< 10000 µg/mL,< 10000 µg/mL,< 10000 µg/mL,< 10000 µg/mL,< 10000 µg/mL,< 10000 µg/mL,< 10000 µg/mL,< 10000 µg/mL,< 10000 µg/mL,< 10000 µg/mL,< 10000 µg/mL,< 10000 µg/mL,< 10000 µg/mL,> 10000 µg/mL,> 10000 µg/mL,"solubility at 2 h [3, 17]: < 10000 µg/mL; solubility [3, 17]: < 10000 µg/mL; solubility at 2 h ([3]; Water): < 10000 µg/mL; solubility ([3]; Water): < 10000 µg/mL; exposure relative to dose [5]: dose-proportional"
"Cc1ncccc1-c1cnc(NCc2c(F)ccc3c2CCO3)n2cnnc12.Cl [Form HA, N-((5-Fluoro-2,3-dihydrobenzofuran-4-yl)methyl)-8-(2-methylpyridin-3-yl)-[1,2,4]triazolo[4,3-c]pyrimidin-5-amine hydrochloride]",,,,,,,,,,,,,,,,,,,,,stability to humidity and temperature [6]: acceptable stability
